From patent publication US10195189B2, “2-phenethenyltetrahydro isoquinolines useful as anti-HIV compounds” (priority 2014, dated 2019)
Like-named read-outs stand apart in the source and are kept apart here.

Tests used:
MT-2 cells = test: Cytotoxicity assay (AlamarBlue) in mock infected MT-2 cells; format: cell-based, human
Experimental: (§1) The present assay was used to screen candidate antiviral compounds by quantification of virus spread and production over several rounds of infection in vitro. MT-2, a HIV-1 permissive human T-cell line, was seeded in microtiter plates and was simultaneously treated with serially diluted compound and inoculated with a HIV-1 NL4-3 viral clone engineered to express Renilla luciferase in place of Net Following treatment, the culture was incubated for 96 hours. After the incubation, media was collected and used to estimate relative infectivity on the indicator cell line, TZM-bl. Additionally, viral spread was quantified by measuring luciferase activity via a commercially available luciferase substrate. In parallel, MT-2 cells were seeded and inoculated with mock virus in the presence of serially diluted compound. Compound toxicity was quantified 96 hours after treatment with AlamarBlue.
(§2) MT-2 (NIH Aids reagent program 237) cells were grown and maintained in an incubator at 37° C. with 5% CO2 using a basal medium of RPMI-1640 supplemented with 10% FBS. Cells were seeded in 100 μl at 2×10^4 cells/well in white walled 96-well microtiter plates. Candidate compounds were 3-fold serially diluted in the appropriate solvent. Solvent without compound was used as a no drug reference. Cells were inoculated at a multiplicity of 0.027 with an HIV-1 NL4-3 virus stock engineered to express Renilla luciferase in place of Net Diluted virus stock was first added to serially diluted compound. Compound and virus were delivered to cells in an equal volume (100 μl) and treated cultures were returned to the incubator for 96 hours. In parallel, plates for cytotoxicity estimates were prepared in the same way except cells were plated in clear walled 96-well microtiter plates and were mock infected.
(§3) At 96 hours post treatment, 20 μl AlamarBlue proliferation reagent was added to 200 μl treated and mock infected cultures and incubated for 3 hours at 37° C. with 5% CO2 then read at 545, 590 nm on fluorescence plate reader (Biotek).
(§4) For all assays, data was imported into Accelrys Assay Explorer 3.3. In Assay Explorer, % inhibition (antiviral or cytotoxicity) was calculated using the solvent control as a reference by the following equation: 1−(SignalCompound/SignalReference). The % Inhibition and compound concentration data was fitted using the following 4-parameter logistic model (Assay Explorer model 42):
(§5) [formula] where X is compound concentration, Y is % inhibition, D is the maximum % Inhibition (constrained to 100%), C is IC50 value or inflection point, B is the hill slope, and A is the minimum % inhibition (constrained to 0%). The IC50 value is reported as the EC50 or CC50 depending on the assay endpoint. EC50 represents the effective concentration at which virus replication is inhibited by 50 percent. CC50 represents the concentration that results in the death of 50 percent of the host cells. The selectivity or therapeutic index (SI or TI), is the ratio of CC50 over EC50 and represents the relative effectiveness in inhibiting viral replication compared to inducing cell death.

[1] = tested on: HIV-1 NL4-3 viral clone expressing Renilla luciferase; test: microbe, parasite or virus in culture; format: cell-based
Method in brief: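 MT-2 cells (2×10^4/well) were infected at MOI 0.027 with Renilla-luciferase HIV-1 NL4-3 alongside 3-fold compound dilutions for 96 h. Spread was read by EnduRen luminescence and supernatant infectivity on TZM-bl (48 h, MUG fluorescence). Mock-infected cytotoxicity used AlamarBlue. % inhibition versus solvent was fitted by 4-parameter logistic (0–100% constrained) for EC50/CC50.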

[2] = Cytotoxicity assay (AlamarBlue) in mock infected MT-2 cells; format: cell-based, human; settings: human
Experimental: as §1, §2, §3, §4, §5

[3] = Human immunodeficiency virus 1, NL43, MT2, 96 h
[4] = mock infected MT-2 cells, 96 hours, AlamarBlue, read-out: CC50

Structure (SMILES)	CC50 (MT-2 cells; human, 96 h) [µM]	EC50 [1, 3] [µM]	other results
COc1cc(C)c(/C=C/C2c3cc(OC)c(OCc4ccccc4)cc3CCN2C(=O)c2ccccn2)cc1OCc1ccccc1 (stereo not shown) [Example M, [6-benzyloxy-1-[(E)-2-(5-benzyloxy-4-methoxy-2-methyl-phenyl)vinyl]-7-methoxy-3,4-dihydro-1H-isoquinolin-2-yl]-(2-pyridyl)methanone]	100	2.09	
COc1cc(C)c(/C=C/C2c3cc(OC)c(OCc4ccccc4)cc3CCN2C(N)=O)cc1OCc1ccccc1 (stereo not shown) [Example R, 6-benzyloxy-1-[(E)-2-(5-benzyloxy-4-methoxy-2-methyl-phenyl)vinyl]-7-methoxy-3,4-dihydro-1H-isoquinoline-2-carboxamide]		1.18	CC50 (MT-2 cells; [4]): 39.3 µM
COc1cc(C)c(/C=C/C2c3cc(OC)c(OCc4ccccc4)cc3CCN2C(=O)c2cccc(N)n2)cc1OCc1ccccc1 (stereo not shown) [Example F, (6-Amino-2-pyridyl)-[6-benzyloxy-1-[(E)-2-(5-benzyloxy-4-methoxy-2-methyl-phenyl)vinyl]-7-methoxy-3,4-dihydro-1H-isoquinolin-2-yl]methanone]	100	5.05	
COc1cc(C)c(/C=C/C2c3cc(OC)c(OCc4ccccc4)cc3CCN2C(=O)c2cccnc2)cc1OCc1ccccc1 (stereo not shown) [Example T, [6-benzyloxy-1-[(E)-2-(5-benzyloxy-4-methoxy-2-methyl-phenyl)vinyl]-7-methoxy-3,4-dihydro-1H-isoquinolin-2-yl]-(3-pyridyl)methanone]	100	0.93	
COC(=O)N1CCc2cc(OCc3ccccc3)c(OC)cc2C1/C=C/c1cc(OC)c(OC)cc1C (stereo not shown) [Example I, Methyl 6-benzyloxy-1-[(E)-2-(4,5-dimethoxy-2-methyl-phenyl)vinyl]-7-methoxy-3,4-dihydro-1H-isoquinoline-2-carboxylate]	100	4.48	
COc1cc(C)c(/C=C/C2c3cc(OC)c(OCc4ccccc4)cc3CCN2C(=O)c2cccnc2N)cc1OCc1ccccc1 (stereo not shown) [Example K, (2-Amino-3-pyridyl)-[6-benzyloxy-1-[(E)-2-(5-benzyloxy-4-methoxy-2-methyl-phenyl)vinyl]-7-methoxy-3,4-dihydro-1H-isoquinoline-2-yl]methanone]	100	2.88	
COc1cc(C)c(/C=C/C2c3cc(OC)c(OCc4ccccc4)cc3CCN2C(=O)c2cnccn2)cc1OCc1ccccc1 (stereo not shown) [Example H, [6-Benzyloxy-1-[(E)-2-(5-benzyloxy-4-methoxy-2-methyl-phenyl)vinyl]-7-methoxy-3,4-dihydro-1H-isoquinolin-2-yl]-pyrazin-2-yl-methanone]	100	4.48	
CCOCc1cc(/C=C/C2NCCc3cc(OCc4ccccc4)c(OC)cc32)ccc1OC (stereo not shown) [EP, (E)-6-(benzyloxy)-1-(3-(ethoxymethyl)-4-methoxystyryl)-7-methoxy-1,2,3,4-tetrahydroisoquinoline]		0.846	CC50 at 96 h [2]: 4 µM
COc1ccc(/C=C/C2NCCc3cc(OCc4ccccc4)c(OC)cc32)c(C(F)(F)F)c1 (stereo not shown) [Example Z, 6-benzyloxy-7-methoxy-1-[(E)-2-[4-methoxy-2-(trifluoromethyl)phenyl]vinyl]-1,2,3,4-tetrahydroisoquinoline]		0.35	CC50 (MT-2 cells; [4]): 100 µM
COc1ncc(/C=C/C2NCCc3cc(OCc4ccccc4)c(OC)cc32)cn1 (stereo not shown) [DD, (E)-(benzyloxy)-7-methoxy-1-(2-(2-methoxypyrimidin-5-yl)vinyl)-1,2,3,4-tetrahydroisoquinoline]	100	11.1	
COc1cc(C)c(/C=C/C2c3cc(OC)c(OCc4ccccc4)cc3CCN2C(=O)c2ccc(N)nc2)cc1OCc1ccccc1 (stereo not shown) [Example P, (6-amino-3-pyridyl)-[6-benzyloxy-1-[(E)-2-(5-benzyloxy-4-methoxy-2-methyl-phenyl)vinyl]-7-methoxy-3,4-dihydro-1H-isoquinolin-2-yl]methanone]	100	1.69	
COc1cc2c(cc1OCc1ccccc1)CCNC2/C=C/c1ccc2cn[nH]c2c1 (stereo not shown) [BT, 6-Benzyloxy-1-[(E)-2-(1H-indazol-6-yl)vinyl]-7-methoxy-1,2,3,4-tetrahydroisoquinoline]			CC50 (MT-2 cells): 7.98 µM; EC50 ([1]; MT-2 cells infected with HIV-1 NL4-3, 96 hours, read-out: EC50): 0.613 µM
COc1cc(C)c(/C=C/C2c3cc(OC)c(OCc4ccccc4)cc3CCN2C(=O)c2ccnc(N)c2)cc1OCc1ccccc1 (stereo not shown) [Example N, (2-amino-4-pyridyl)-[6-benzyloxy-1-[(E)-2-(5-benzyloxy-4-methoxy-2-methyl-phenyl)vinyl]-7-methoxy-3,4-dihydro-1H-isoquinolin-2-yl]methanone]	100	2.03	
COc1cc(C(C)(C)C)c(/C=C/C2NCCc3cc(OCc4ccccc4)c(OC)cc32)cc1OCc1ccccc1 (stereo not shown) [AS, 6-Benzyloxy-1-[(E)-2-(5-benzyloxy-2-tert-butyl-4-methoxy-phenyl)vinyl]-7-methoxy-1,2,3,4-tetrahydroisoquinoline]		4.22	CC50 (MT-2 cells; [4]): 5.36 µM
